In US10919891B2, “Heterocyclic compound” (TAKEDA PHARMACEUTICAL COMPANY LIMITED, priority 2017, dated 2021):

Biological target: T1, human CaSR (Homo sapiens, UniProt P41180)
T1 construct: expressed in transfected cells; host or cells: CHO cells
T1 sequence (P41180 20-1078): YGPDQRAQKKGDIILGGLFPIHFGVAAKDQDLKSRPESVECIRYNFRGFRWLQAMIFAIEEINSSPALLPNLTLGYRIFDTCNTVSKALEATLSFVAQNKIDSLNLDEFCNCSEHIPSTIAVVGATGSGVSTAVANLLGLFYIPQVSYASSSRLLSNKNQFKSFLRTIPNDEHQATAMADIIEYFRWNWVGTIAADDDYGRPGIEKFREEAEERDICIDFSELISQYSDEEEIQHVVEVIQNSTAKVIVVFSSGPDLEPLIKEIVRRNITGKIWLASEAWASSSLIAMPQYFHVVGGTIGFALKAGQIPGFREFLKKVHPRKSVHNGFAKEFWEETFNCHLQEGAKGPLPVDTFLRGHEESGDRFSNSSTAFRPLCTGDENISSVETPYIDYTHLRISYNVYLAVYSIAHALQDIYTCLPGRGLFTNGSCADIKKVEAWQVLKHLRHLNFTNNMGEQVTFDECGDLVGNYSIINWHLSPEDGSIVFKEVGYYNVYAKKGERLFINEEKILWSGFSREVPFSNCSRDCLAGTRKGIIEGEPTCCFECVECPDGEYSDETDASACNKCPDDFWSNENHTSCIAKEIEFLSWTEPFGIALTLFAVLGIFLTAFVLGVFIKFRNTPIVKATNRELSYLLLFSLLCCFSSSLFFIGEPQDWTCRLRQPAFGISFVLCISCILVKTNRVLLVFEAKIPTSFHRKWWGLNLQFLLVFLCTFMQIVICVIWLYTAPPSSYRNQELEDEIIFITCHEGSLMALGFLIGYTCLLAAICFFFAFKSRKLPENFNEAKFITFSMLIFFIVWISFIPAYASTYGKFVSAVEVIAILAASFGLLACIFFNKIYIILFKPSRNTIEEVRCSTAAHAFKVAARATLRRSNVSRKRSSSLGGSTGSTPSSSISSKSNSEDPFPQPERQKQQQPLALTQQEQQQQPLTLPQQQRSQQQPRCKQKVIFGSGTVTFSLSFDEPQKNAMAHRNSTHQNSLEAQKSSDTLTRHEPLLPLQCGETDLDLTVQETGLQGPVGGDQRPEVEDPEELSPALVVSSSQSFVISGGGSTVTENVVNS
Test: Human CaSR Antagonist Activity (CHO cells, NFAT-Luciferase reporter)
Type: cell-based
Conditions: 3.3 μm test compound, CaCl2 final 1.3 mM, 100% = reference carboxamide at 10 μM; for inhibition at 3.3 µM: CHO, 2 h, read-out: Inhibition rate (%) at 3.3 μm
Experimental: CaSR antagonist activity measurement was performed using Bright-Glo Luciferase assay system (Promega Corporation). CHO cells in which human CaSR and NFAT-Luciferase reporter gene were forcibly expressed were suspended in MEM alpha (Wako Pure Chemical Industries, Ltd.) containing 10% dialyzed serum (HyClone). The cells in suspension was seeded in 384-well white plate (Corning) at 10,000/20 μL/well, and cultured in an incubator of 37° C., 5% CO2 for one day. A diluent of Test compound was prepared with assay buffer (MEM alpha containing 10 mM HEPES (Life Technologies) and 10% dialysis serum). The diluent was added to the plate at 5 μL/well and allowed to stand at 37° C. for 10 minutes. Further, a diluent of 7.8 mM CaCl2 prepared with assay buffer (final concentration 1.3 mM) was added at 5 μl/well and allowed to stand in an incubator of 37° C., 5% CO2 for 2 hours. Bright-Glo reagents (Promega Corporation) were added at 10 μL/well, and the obtained mixture was stirred for 5 minutes, and then luminescence intensity was measured using Multi-label reader Envision (PerkinElmer, Inc.). The activity (%) of the test compound was calculated with the definitions in which the luminescence intensity when DMSO is added in place of the test compound is defined as 0% inhibition; and the luminescence intensity when (5R)—N-(1-ethyl-1-(4-ethylphenyl)propyl)-2,7,7-trimethyl-5-phenyl-4,5,6,7-tetrahydropyrazolo[1,5-a]Pyrimidine-3-carboxamide at final concentration of 10 μM is added is defined as 100% inhibition.

inhibition at 3.3 µM [%]	Inhibition rate (%) at 3.3 μm [%]	Structure (SMILES)
101	–	Cc1cccc(C23CC2CN(C(=O)c2cnn4c2N[C@@H](c2ccccc2)CC4(C)C)C3)c1 (stereo partly drawn) [Example 22, ((5R)-7,7-Dimethyl-5-phenyl-4,5,6,7-tetrahydropyrazolo[1,5-a]pyrimidin-3-yl)(1-(3-methylphenyl)-3-azabicyclo[3.1.0]hex-3-yl)methanone]
99	–	COc1cccc(C23CC2CN(C(=O)c2cnn4c2N[C@@H](c2ccccc2)CC4(C)C)C3)c1 (stereo partly drawn) [Example 19, ((5R)-7,7-Dimethyl-5-phenyl-4,5,6,7-tetrahydropyrazolo[1,5-a]pyrimidin-3-yl)(1-(3-methoxyphenyl)-3-azabicyclo[3.1.0]hex-3-yl)methanone]
111	–	CC1(C)C[C@H](c2ccccc2)Nc2c(C(=O)N3CC4CC4(c4ccc(C(F)(F)F)cc4F)C3)cnn21 (stereo partly drawn) [Example 27, ((5R)-7,7-Dimethyl-5-phenyl-4,5,6,7-tetrahydropyrazolo[1,5-a]pyrimidin-3-yl)(1-(2-fluoro-4-(trifluoromethyl)phenyl)-3-azabicyclo[3.1.0]hex-3-yl)methanone]
96	–	CC1(C)C[C@H](c2ccccc2)Nc2c(C(=O)N3CC4CC4(c4ccncc4)C3)cnn21 (stereo partly drawn) [Example 45]
99	–	CC1(C)C[C@H](c2ccccc2)Nc2c(C(=O)N3CC4CC4(c4ccsc4)C3)cnn21 (stereo partly drawn) [Example 46, ((5R)-7,7-Dimethyl-5-phenyl-4,5,6,7-tetrahydropyrazolo[1,5-a]pyrimidin-3-yl)(1-(3-thienyl)-3-azabicyclo[3.1.0]hex-3-yl)methanone]
90	–	CC1(C)C[C@H](c2ccccc2)Nc2c(C(=O)N3CC4CC4(c4ccc(C(F)(F)F)c(Cl)c4)C3)cnn21 (stereo partly drawn) [Example 12, (1-(3-Chloro-4-(trifluoromethyl)phenyl)-3-azabicyclo[3.1.0]hex-3-yl)((5R)-7,7-dimethyl-5-phenyl-4,5,6,7-tetrahydropyrazolo[1,5-a]pyrimidin-3-yl)methanone]
–	93	COc1cccc(C23CC2CN(C(=O)c2cnn4c2N[C@@H](c2ccccc2)CC4(C)C)C3)c1 (stereo partly drawn) [Example 20, ((5R)-7,7-Dimethyl-5-phenyl-4,5,6,7-tetrahydropyrazolo[1,5-a]pyrimidin-3-yl)(1-(3-methoxyphenyl)-3-azabicyclo[3.1.0]hex-3-yl)methanone]
–	92	Cc1cccc(C23CC2CN(C(=O)c2cnn4c2N[C@@H](c2ccccc2)CC4(C)C)C3)c1 (stereo partly drawn) [Example 23, ((5R)-7,7-Dimethyl-5-phenyl-4,5,6,7-tetrahydropyrazolo[1,5-a]pyrimidin-3-yl)(1-(3-methylphenyl)-3-azabicyclo[3.1.0]hex-3-yl)methanone]
–	92	CC1(C)C[C@H](c2ccccc2)Nc2c(C(=O)N3CC4CC4(c4ccc(C(F)(F)F)cc4F)C3)cnn21 (stereo partly drawn) [Example 29, ((5R)-7,7-Dimethyl-5-phenyl-4,5,6,7-tetrahydropyrazolo[1,5-a]pyrimidin-3-yl)(1-(2-fluoro-4-(trifluoromethyl)phenyl)-3-azabicyclo[3.1.0]hex-3-yl)methanone]
100	–	CC1(C)C[C@H](c2ccccc2)Nc2c(C(=O)N3CC4CC4(c4cccc(Cl)c4)C3)cnn21 (stereo partly drawn) [Example 16, (1-(3-Chlorophenyl)-3-azabicyclo[3.1.0]hex-3-yl)((5R)-7,7-dimethyl-5-phenyl-4,5,6,7-tetrahydropyrazolo[1,5-a]pyrimidin-3-yl)methanone]
97	–	CC1(C)C[C@H](c2ccccc2)Nc2c(C(=O)N3CC4CC4(c4cccc(C(F)(F)F)c4)C3)cnn21 (stereo partly drawn) [Example 25, ((5R)-7,7-Dimethyl-5-phenyl-4,5,6,7-tetrahydropyrazolo[1,5-a]pyrimidin-3-yl)(1-(3-(trifluoromethyl)phenyl)-3-azabicyclo[3.1.0]hex-3-yl)methanone]
–	101	CC1(C)C[C@H](c2ccccc2)Nc2c(C(=O)N3CC4CC4(c4ccc(C(F)(F)F)cc4F)C3)cnn21 (stereo partly drawn) [Example 28, ((5R)-7,7-Dimethyl-5-phenyl-4,5,6,7-tetrahydropyrazolo[1,5-a]pyrimidin-3-yl)(1-(2-fluoro-4-(trifluoromethyl)phenyl)-3-azabicyclo[3.1.0]hex-3-yl)methanone]
111	–	COc1ccccc1C12CN(C(=O)c3cnn4c3N[C@@H](c3ccccc3)CC4(C)C)CC1C2(F)F (stereo partly drawn) [Example 52, (6,6-Difluoro-1-(2-methoxyphenyl)-3-azabicyclo[3.1 0]hex-3-yl)((5R)-7,7-dimethyl-5-phenyl-4.5,5,7-tetrahydropyrazolo[1,5-a]pyrimidin-3-yl)methanone]
115	–	COc1cccc(C23CN(C(=O)c4cnn5c4N[C@@H](c4ccccc4)CC5(C)C)CC2C3(F)F)c1 (stereo partly drawn) [Example 51, (6,6-Difluoro-1-(3-methoxyphenyl)-3-azabicyclo[3.1.0]hex-3-yl)((5R)-7,7-dimethyl-5-phenyl-4,5,6,7-tetrahydropyrazolo[1,5-a]pyrimidin-3-yl)methanone]
96	–	CC1(C)C[C@H](c2ccccc2)Nc2c(C(=O)N3C[C@@H]4C[C@]4(C(F)F)C3)cnn21 [Example 47]
136	–	Cc1cccc(C23CN(C(=O)c4cnn5c4N[C@@H](c4ccccc4)CC5(C)C)CC2C3(F)F)c1 (stereo partly drawn) [Example 49, (6,6-Difluoro-1-(3-methylphenyl)-3-azabicyclo[3.1.0]hex-3-yl)((5R)-7,7-dimethyl-5-phenyl-4,5,6,7-tetrahydropyrazolo[1,5-a]pyrimidin-3-yl)methanone]
128	–	COc1ccc(C23CN(C(=O)c4cnn5c4N[C@@H](c4ccccc4)CC5(C)C)CC2C3(F)F)cc1 (stereo partly drawn) [Example 50, (6.6-Difluoro-1-(4-methoxyphenyl)-3-azabicyclo[3.1.0]hex-3-yl)((5R)-7,7-dimethyl-5-phenyl-4,5,6,7-tetrahydropyrazolo[1,5-a]pyrimidin-3-yl)methanone]
92	–	CC1(C)C[C@H](c2ccccc2)Nc2c(C(=O)N3CC4C[C@]4(c4ccc(C(F)(F)F)cc4)C3)cnn21 (stereo partly drawn) [Example 8, ((5R)-7,7-Dimethyl-5-phenyl-4,5,6,7-tetrahydropyrazolo[1,5-a]pyrimidin-3-yl)(1-(4-(trifluoromethyl)phenyl)-3-azabicyclo[3.1.0]hex-3-yl)methanone]
92	–	CC1(C)C[C@H](c2ccccc2)Nc2c(C(=O)N3C[C@H]4C[C@@]4(c4ccc(Cl)c(Cl)c4)C3)cnn21 [Example 2, ((1R,5S)-1-(3,4-Dichlorophenyl)-3-azabicyclo[3.1.0]hex-3-yl)((5R)-7,7-dimethyl-5-phenyl-4,5,6,7-tetrahydropyrazolo[1,5-a]pyrimidin-3-yl)methanone]
117	–	Cc1ccc(C23CN(C(=O)c4cnn5c4N[C@@H](c4ccccc4)CC5(C)C)CC2C3(F)F)cc1 (stereo partly drawn) [Example 48, (6,6-Difluoro-1-(4-methylphenyl)-3-azabicyclo[3.1.0]hex-3-yl)((5R)-7,7-dimethyl-5-phenyl-4,5,6,7-tetrahydropyrazolo[1,5-a]pyrimidin-3-yl)methanone]
–	95	CC1(C)C[C@H](c2ccccc2)Nc2c(C(=O)N3CC4CC4(c4cccc(Cl)c4)C3)cnn21 (stereo partly drawn) [Example 17, (1-(3-Chlorophenyl)-3-azabicyclo[3.1.0]hex-3-yl)((5R)-7,7-dimethyl-5-phenyl-4,5,6,7-tetrahydropyrazolo[1,5-a]pyrimidin-3-yl)methanone]
